Measurements published in US6509163B1, “Methods of screening modulators of mammalian P2X7 purinergic receptors” (Glaxo Group Limited, priority 1997, dated 2003).

Biological target: T1, P2X7ΔC receptor (Rattus norvegicus, UniProt Q64663)
T1 construct: the resulting protein (P2X7ΔC) was P2X7 (1-418); expressed in transfected cells; host or cells: HEK293 (transient)
T1 sequence (Q64663 1-418): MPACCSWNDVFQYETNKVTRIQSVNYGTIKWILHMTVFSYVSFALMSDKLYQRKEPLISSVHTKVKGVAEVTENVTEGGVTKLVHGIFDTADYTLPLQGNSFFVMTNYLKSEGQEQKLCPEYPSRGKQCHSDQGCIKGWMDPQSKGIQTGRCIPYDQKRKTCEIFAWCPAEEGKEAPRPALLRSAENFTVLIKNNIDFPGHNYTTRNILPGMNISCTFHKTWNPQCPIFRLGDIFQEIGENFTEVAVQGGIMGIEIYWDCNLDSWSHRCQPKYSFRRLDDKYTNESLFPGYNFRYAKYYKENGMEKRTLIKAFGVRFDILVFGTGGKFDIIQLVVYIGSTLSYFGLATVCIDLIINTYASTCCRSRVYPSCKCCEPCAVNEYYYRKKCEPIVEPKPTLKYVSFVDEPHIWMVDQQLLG
Experiment: Whole-cell recordings in HEK293 cells transiently transfected with P2X7ΔC cDNA
Assay type: cell-based
Conditions: 30 μM BzATP, normal solution, holding potential −70 mV, transiently transfected HEK cells, n=18
Description: A 440-base pair (bp) fragment of P2X7 was amplified with inosine-containing degenerate oligonucleotides from several peripheral autonomic ganglia (Buell et al, EMBO J. 15:55 (1996)). […] An additional 468 bp of 5′ cDNA was cloned by rapid amplification of cDNA ends-polymerase chain reaction (RACE-PCR; Life Technologies, Bethesda, MD) using poly(A)^+ RNA from the medial habenula. P2X7 receptor-specific sequences were amplified with two rounds of nested PCR, for which sense primers were […] and […] and antisense primers were […] and […]. A shared restriction site (Bgl II) permitted ligation of the RACE-PCR product and of the partial cDNA, yielding a construct that encoded the entire P2X7 protein. This chimera (GenBank accession number X95882) was expressed in pcDNA3 (Invitrogen, San Diego, Calif.), sequenced by fluorescent DNA sequencing (Perkin Elmer, Foster City, Calif.), and confirmed by isolation of other full-length P2X7 cDNAs from a rat brain cDNA library (Clontech, Palo Alto, Calif.). One of these included a stop codon 130 bp upstream from the ATG. The COOH-terminus was removed by excision of a Xcm I-Not I fragment, and the resulting protein (P2X7ΔC) was P2X7 (1-418). […]

For `Nc1ncnc2c1ncn2[C@@H]1O[C@H](COP(=O)(O)OP(=O)(O)OP(=O)(O)O)[C@@H](OC(=O)c2ccc(C(=O)c3ccccc3)cc2)[C@H]1O` [BzATP, 3′-O-(4-benzoyl)benzoyl ATP], the “Current amplitude (mean±SEM) to BzATP” value was 590±95 pA.
